Here are results for two compounds from patent publication US20120083472A1, “PHARMACEUTICAL COMPOSITION FOR PROMOTING THE HEALING OF WOUNDS AND CONTAINING LYSOPHOSPHATIDIC ACID AND AN ADENYLYL CYCLASE INHIBITOR AS ACTIVE INGREDIENTS” (SNU R&DB FOUNDATION, priority 2009, published 2012).

Experiment [1] deals with young and senescent fibroblasts (HDFs). Put plainly: In vitro wound healing assay (cell migration into acellular area). The experiment is classed as cell-based, human. As to conditions: serum-starved; for migration of senescent cells: LPA 30 μM, ACI 300 μM, 72 hrs (FIGS. 6B, 6D); for migration of young cells: LPA 30 μM or ACI 300 μM, up to 72 hrs (FIGS. 6A, 6C). The procedure:
Sub-cultured young (A, C) and senescent cells (B, D) were serum-starved for 2 days and treated with ACI or dbcAMP (1 mM) for 2 hr at 37° C. An area was denuded by a yellow tip and the cells were then treated with LPA (30 μM) and incubated at 37° C. Photographs were taken at 6 hrs, 12 hrs, 18 hrs, 24 hrs, 30 hrs, 36 hrs, 42 hrs, 60 hrs, and 72 hrs, and the number of cells migrated into the acellular area was counted and the average values were plotted in A and B. The data at 72 hrs were replotted in a bar graph to show the significant changes induced by treating cells with either LPA or ACI, or both (C and D). The results shown represent the means±standard deviation of a representative experiment. Cell migration from each group (p<0.001) was compared to the control value the migration was read as having a significance.
LPA-induced cell migration was assessed by the ability of the cells to move into an acellular area (Shiraha et al., 2000). Cells were plated on a 10-cm plastic dish and grown to 70-80% confluence in the culture media with 10% FBS. After a 2-day quiescence in serum free media with 0.1% BSA, cells were pretreated with vehicle, ACI (300 μM), or dbcAMP (1 mM) for 2 hrs at 37° C. An area was denuded by a tip and the cells were then incubated at 37° C. without or with LPA (30 μM). Photographs were taken at 6 hrs, 12 hrs, 18 hrs, 24 hrs, 30 hrs, 36 hrs, 42 hrs, 60 hrs, and 72 hrs, and the number of cells migrating to the acellular area was counted.

The test system of experiment [2] is skin wounds of young and aged Fisher 344 rats. Put plainly: Skin wound healing in young and aged rats (photographs, H & E, PCNA staining). The experiment is classed as in vivo, rat. As to conditions: for epithelialization (H & E) of aged wounded rats: day 4, compared to control untreated groups; for PCNA staining in aged rats: wound sections, versus very weak staining in control aged rats; for number of PCNA positive cells / wound healing rate (photographs of wounds): young and aged rats; for number of PCNA positive cells: wound sections (FIG. 9B, 9C); for wound healing rate (photographs of wounds): LPA 30 μM, ACI 300 μM, 200 μl topical once per two days, 4th day (FIG. 7). The procedure: Rats were anesthetized with intraperitoneal injection of ketamine and xylazine. The back was shaved (A) and four full-thickness circular skin wounds of 1.0 cm diameter were cut (B). A teflon wound chamber was glued into the edge of the skin and then sewn using a […] (C).
Young and old rats were anesthetized and wounded as described in the legend of FIG. 1. 200 μl aliquots of the solutions containing LPA (30 μM), ACI (300 μM), and the mixture of LPA and ACI dissolved in physiological saline were applied onto wound sites using a sterile glass filter in each wound chamber once per two days. After 4 days, the wounds were photographed.
Young and old rats were anesthetized and wounded as described in the legend of FIG. 1. The wounds were treated with LPA (30 μM), ACI (300 μM), or the mixture of LPA and ACI as described in the legend of FIG. 1c. On postoperative days 4, animals were anesthetized and killed as described in “Materials and Methods”. Approximately 5-mm-thick section across the dorsoventral diameter of the wound was cut and fixed and embedded in paraffin. Serial sections were cut and processed for hematoxylin-eosin (H & E) staining. H & E stained epithelial layer was visualized on the top of each section.
Young and aged rats were anesthetized and wounded as described in the legend of FIG. 1. The wounds were treated with LPA (30 μM), ACI (300 μM), or the mixture of LPA and ACI as described in the legend of FIG. 1c. On postoperative days 2, 4, and 7, animals were anesthetized and killed as described in “Materials and Methods”. An about 5-mm-thick section across the dorsoventral diameter of the wound was cut and fixed and embedded in paraffin. Serial sections were cut and processed for immunohistochemistry using PCNA as described in “Materials and Methods”. The presence of PCNA was visualized by using avidin-biotin peroxidase complex method and the control was counterstained with hematoxylin. The photographs from postoperative days 4 are shown in A. The number of PCNA positive cell was counted from each photograph and plotted in B (young rats) and C (aged rats).
Rats aged 6 months and 24 months which were used in experiments were purchased from Samtaco BioKorea (Seoul, Korea) and housed two per cage in a room with controlled temperature and humidity with a 12:12-h light-dark cycle. They were maintained on a standard diet with food and water ad libitum in an animal facility accredited by the Korean Association for Accreditation of Laboratory Animal Care. Animals were divided into treatment groups, each consisting of nine, and used in experiments.
Rats were anesthetized with intraperitoneal injection of ketamine and xylazine (87/13 mg/kg). Skin wounding and its protection was performed as described by Balazs (Balazs et al., 2001). By the dermabrasion technique using diamond bar, four second-degreed partial thickness circular wounds of 1.0 cm. A teflon wound chamber with a 1.2 cm inner diameter centered around the wound was glued into the edge of the skin with Histoacryl and then sewn using a surgical nylon suture (Ethicon 4-0) (FIG. 1C). In order to protect wound site, upon treatment with LPA or ACI, they were sprayed using a sterile filter (GF-C Whatman), followed by treatment. This work was carried out by a single plastic surgeon for consistency and exactness of experiments. 30 μM of LPA, 300 μM of ACI, and the mixture of LPA (30 μM) and ACI (300 μM) are dissolved in physiological saline to be a 200-μl aliquot, respectively. The 200-μl aliquot, corresponding to 30 pmol/mm^2, was applied […] into the wound of the animals anesthetized with inhalation. The contralateral side received 200 μl of saline as a control. […]
Serial sections (4 […]μm thick) were cut and processed for hematoxylin-eosin (H & E) and immunohistological staining. Paraffin sections on the microslides were deparaffinized in xylene and rehydrated sequentially in alcohol. […]

lysophosphatidic acid [LPA]: in experiment [1], the “migration of senescent cells” value is on record as “increased senescent cell migration at 72 hrs significantly” and the “migration of young cells” value is reported as “migration of cells is increased”. In experiment [2], the “epithelialization (H & E) of aged wounded rats” value was “higher”, the “PCNA staining in aged rats” value was “increased significantly”, the “number of PCNA positive cells” value is “increased significantly” and the “wound healing rate (photographs of wounds)” value is listed as “faster than the untreated controls”.
As to `Nc1ncnc2c1ncn2C1CCCO1` (stereo not drawn) [ACI, 9-(tetrahydro-2′-furyl)adenine], in experiment [1], the “migration of senescent cells” value was “increase in cell migration” and the “migration of young cells” value is reported as “unaltered”. For the same compound, in experiment [2], the “epithelialization (H & E) of aged wounded rats” value was “higher”, the “PCNA staining in aged rats” value is “increased significantly”, the “number of PCNA positive cells” value is “increased significantly” and the “wound healing rate (photographs of wounds)” value was “faster than the untreated controls”.
